Entries after “also recorded” stand apart in the source; their conditions may differ. Square brackets hold non-standard residues; d marks the D form. Peptide text beside a SMILES is read from it. * marks the point of attachment. Biotin = O=C1N[C@H]2[C@H](CS[C@H]2CCCCC(=O)*)N1; Ahx = NCCCCCC(=O)O
How the values were obtained:
EphB4 = conditions: cell culture; cited from earlier work
Experimental: An explanation for the discrepancy in the potency of the peptide in biochemical and cell culture assays could be that TNYL-RAW is susceptible to degradation by proteases present in cell culture medium. For example, trypsin-like proteases are l ... || Despite the low nanomolar EphB4 binding affinity of TNYL-RAW, the very short half-life of the peptide greatly limits its effectiveness, as exemplified by the high concentrations (10–100 µM) needed to inhibit EphB4-ephrin-B2 interaction in cell culture, [33], [36], [37]. We used three strategies to improve TNYL-RAW stability in cell culture and circulating half-life: fusion with Fc, complexation with streptavidin and covalent coupling to 40 KDa polymeric PEG molecules. Fusion with Fc has been successfully used to improve the stability and pharmacokinetic properties of numerous prot ...

[1] = Peptide stability in mouse serum ex vivo; type: in vitro ADME; conditions: 37°C
Eph receptors = conditions: cited from earlier work
Source text: (§1) Inhibiting EphB4-ephrin-B2 interaction could therefore be useful for diverse medical applications. […] A 15 amino acid-long EphB4 antagonistic peptide, TNYL-RAW (TNYLFSPNGPIARAW), could represent an alternative to the large EphB4 e ...

human EphB4 = conditions: human EphB4, isothermal titration calorimetry; cited from earlier work
Source text: as §1

mouse EphB4 = conditions: mouse EphB4, surface plasmon resonance; cited from earlier work
Source text: as §1

EphB4-ephrin-B2 binding = conditions: ELISA assays; read-out: IC50 for inhibition of EphB4-ephrin-B2 binding; cited from earlier work
Source text: An explanation for the discrepancy in the potency of the peptide in biochemical and cell culture assays could be that TNYL-RAW is susceptible to degradation by proteases present in cell culture medium. For example, trypsin-like proteases are l ...

[2] = Peptide stability in cell culture medium / conditioned medium (ELISA of functional peptide); type: in vitro ADME
Experimental: PC3 prostate cancer cells were grown in RPMI 1640 medium (Mediatech, Inc, Herndon, VA) with 10% fetal bovine serum (FBS) (Hyclone, Logan, UT), penicillin and streptomycin. B16-F10-luc-G5 melanoma cells (Caliper Life Sciences, Hopkinton, MA) were grown in Eagle's MEM with Earle's Balanced Salts (EBSS) (Hyclone, Logan, UT) supplemented with 10% FBS, non essential amino acids (Hyclone, Logan, UT), L-glutamine, sodium pyruvate (Hyclone, Logan, UT), MEM vitamin solution (Life Technologies-Invitrogen), penicillin and streptomycin (Omega Scientific, Tarzana, CA). HUVECs (Cascade Biologics, Portland, OG) were grown in Medium 200 supplemented with low serum growth supplements (Cascade Biologics), 10% FBS, penicillin and streptomycin, and fungizone (Omega Scientific, Tarzana, CA). Rat EMCs were grown in DMEM (Mediatech, Inc, Herndon, VA) supplemented with 10% FBS, penicillin and streptomycin. The different modified forms of TNYL-RAW at a concentration of 25 nM were added to fresh medium or culture medium conditioned by the cells for 1–4 days. The culture medium was collected after different time periods and diluted 1∶10 in ELISA wells. The amount of intact TNYL-RAW peptide remaining was measured by using the ELISA assays described above for measurement of binding affinity. In some experiments, the peptide was incubated at 37°C with PC3 cell conditioned medium collected from the cells in the absence or in the presence of protease inhibitors (10 µg/ml aprotinin, 5 µg/ml pepstatin, 10 µg/ml leupeptin and 0.75 mM or phenylmethylsulfonylfluoride (PMSF)).

[3] = Peptide retention in mouse blood circulation; type: in vivo; conditions: 6 nmoles biotinylated TNYL-RAW IV, 3 mice, serum diluted 1:20, ELISA on EphB4 Fc; Figure 1D
Experimental: 2.1 nmoles TNYL-RAW-Fc, 1.5 nmoles TNYL-RAW-streptavidin and 6 nmoles PEG-TNYL-RAW, diluted in 150 µl sterile PBS, were administered to C57BL/6 mice by intravenous or intraperitoneal injection. Blood was collected from each mouse from the orbital sinus at two time points after injection and by cardiac puncture under Avertin anesthesia at a third time point. These experiments were carried out in accordance with the recommendations in the Guide for the Care and Use of Laboratory Animals of the National Institutes of Health. The protocol was approved by the Institutional Animal Care and Use Committee of the Sanford-Burnham Medical Research Institute (Animal Assurance Number: A-3053-1). After collection, the blood was […], and the serum was stored at −20°C. The different forms of TNYL-RAW in the serum were detected by using the same ELISA assays described above for measurements of binding affinity. The absorbance from wells incubated with mouse serum without TNYL-RAW was subtracted as the background and the concentration of TNYL-RAW in the blood was calculated based on a standard curve generated using serum containing known TNYL-RAW concentrations. The half-life of each peptide was estimated by using non linear regression and the program Prism (GraphPad Software Inc.). The area under the curve (AUC) was expressed as % ID•hours/ml (where ID is the initial dose of peptide injected) and calculated by dividing the AUC value obtained using the program Prism by the amount of injected peptide and multiplying by 100.

HUVECs and EMCs = experiment: Capillary-like tube formation on Matrigel; type: cell-based; conditions: HUVECs and EMCs 2:1, Matrigel, 15 hours; TNYL-RAW tested up to 20 µM; Figure 6
Experimental: An EMC clone expressing EGFP was generated by transducing EMCs (a kind gift from H. Eid) with a lentiviral construct followed by clonal selection. To generate capillary-like tubes, HUVECs (2.8×10^4), EMCs (7.5×10^4) or a mixture of the two cell types (2.8×10^4 HUVECs and 1.4×10^4 EMCs) were grown for 5 to 20 hours in 24-well tissue culture plates (Corning, Corning, NY) precoated with 80 µl Matrigel (BD Bioscience, San Jose, CA) in Medium 200 or DMEM complete culture medium containing PEG-TNYL-RAW or PEG control. In some experiments, mixed cultures were treated with TNYL-RAW or DMSO control. The cells were then fixed for 15 min in 4% formaldehyde in PBS and photographed under a fluorescence microscope. Tube length was quantified using ImageJ software.

- Stability in mouse serum ex vivo ([1]; undiluted mouse serum, functional peptide by ELISA, Figures 1E, 3B): rapidly lost
- Peptide loss in culture medium of other cell types ([2]; B16 melanoma cells, HUVECs, EMCs (Figure S1), C6 glioma cells and BPH1 prostate epithelial cells (data not shown), biotinylated TNYL-RAW, ELISA): Rapid TNYL-RAW loss
- Half-life in PC3 cell culture medium ([2]; biotinylated TNYL-RAW with PC3 prostate cancer cells grown in the same medium for several days, depends on cell density and time in medium, ELISA capture on EphB4 Fc, streptavidin-HRP, Figure 1A): less than an hour to several hours
- Half-life with cells in fresh culture medium versus medium used for 3 days ([2]; biotinylated TNYL-RAW, PC3 cells, medium freshly replaced before adding peptide, ELISA, Figure 1A): had a longer half-life
Structure (SMILES): CC[C@H](C)[C@H](NC(=O)[C@@H]1CCCN1C(=O)CNC(=O)[C@H](CC(N)=O)NC(=O)[C@@H]1CCCN1C(=O)[C@H](CO)NC(=O)[C@H](Cc1ccccc1)NC(=O)[C@H](CC(C)C)NC(=O)[C@H](Cc1ccc(O)cc1)NC(=O)[C@H](CC(N)=O)NC(=O)[C@@H](N)[C@@H](C)O)C(=O)N[C@@H](C)C(=O)N[C@@H](CCCNC(=N)N)C(=O)N[C@@H](C)C(=O)N[C@@H](Cc1c[nH]c2ccccc12)C(=O)NCCCCCC(=O)N[C@@H](CCCCNC(=O)CCCC[C@@H]1SC[C@@H]2NC(=O)N[C@@H]21)C(N)=O [TNYL-RAW] (H-TNYLFSPNGPIARAW[Ahx]K(Biotin)-NH2; N-terminus and C-terminus assumed)
- Peptide concentrations needed to substantially inhibit ephrin-B2-induced EphB4 tyrosine phosphorylation and downstream effects / EphB4-ephrin-B2 interaction in cultured cells (EphB4): 10 to 100 µM
- Loss in mouse serum ex vivo with protease inhibitors ([1]; mouse serum, mixture of protease inhibitors, ELISA, Fig. 1E): partially counteracted by a mixture of protease inhibitors
- Selectivity of binding among Eph receptors (Eph receptors): selectively binds to EphB4 but not any other Eph receptor
- Kd (human EphB4): 0.07 µM
- Kd (mouse EphB4): 0.003 µM
- IC50 (EphB4-ephrin-B2 binding): ~0.015 µM
- Peptide loss in PC3 cell conditioned medium with protease inhibitors ([2]; conditioned medium without cells, 37°C, aprotinin, leupeptin, pepstatin and PMSF, ELISA, Figure 1B): blocked by a mixture of protease inhibitors
- Detection in mouse serum 30 min after intravenous administration [3]: could not be detected; also recorded: undetectable
- Effect on capillary-like tube formation in co-cultures at different concentrations (HUVECs and EMCs): does not have significant effects; also recorded: does not have a significant effect
